Read-outs that look alike come from different tables or passages of the source.
Key:
[1] = target: wild type MLL1 four-member complex (MLL1-4C) (Homo sapiens, UniProt Q03164); assay: MLL1 LC-MS Assay; assay type: biochemical
How it was run: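 Compound pre-incubated 20 min with MLL1-4C and SAM, then H3[1-21]-biotin (H3K4me0) substrate added; final 30 nM enzyme, 2.5 μM SAM, 10 μM peptide in Tris pH 8.0 with MgCl2, DTT, Tween 20, BSA. After 120 min at rt, TFA-quenched SAH quantified by LC-MS/MS with d4-SAH; IC50 from dose-response fit.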

H3K4me3 in MV4-11 cells = assay: MV4-11 H3K4me3 Cellular ELISA Assay; assay type: cell-based; details: Homo sapiens, MV4-11, 48 h
How it was run: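 MV4-11 cells were treated for 48 h with 12-point 1:3 compound dilutions (from 10 mM stock), then histones were acid-extracted with 0.5M HCl and neutralized. H3K4me3 and total H3 were measured by HRP chemiluminescent ELISA, and inhibition versus DMSO after H3 normalization was curve-fitted for IC50.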

[2] = target: wild type MLL1 five-member complex (MLL1-5C) (Homo sapiens, UniProt Q03164); assay: MLL1 Flashplate Assay; assay type: biochemical; details: read-out: MLL1 flash plate
Experimental: MLL1 Flashplate Assay To assess the compound potency in MLL1 Flashplate assay, compounds were serially diluted 3-fold in DMSO to obtain a total of twelve concentrations. Then the test compounds at each concentration (250 nL of each) were transferred by Mosquito into Corning #3675 384-well plate. Solutions (15 μL) of 4.2 nM wild type MLL1 five-member complex (MLL1-5C) in the assay buffer (20 mM Tris-HCl, pH 8.0, 0.01% Tween 20, 1 mM DTT, 0.01% BSA) were added to the wells. A 10 μL solution of 2.5 μM of the peptide substrate H3K4me0 (histone H3[1-21]-Biotin) and 1.25 μM ^3H-SAM in the reaction buffer was then added to initiate each reaction. The final components in the reaction solution include 2.5 nM MLL1-5C, 0.5 μM ^3H-SAM, and 1 μM H3K4me0 with varying concentration of the compounds. A positive control consisted of 2.5 nM MLL1-5C, 0.5 μM ^3H-SAM, and 1 μM substrate in the absence of the test compound, and a negative control consisted of 0.5 μM ^3H-SAM, and 1 μM substrate only. Each reaction was incubated at rt for 90 min, then stopped by addition of 5 μL per of quench solution (0.5 mM SAM in assay buffer). 25 μL of each reaction solution was transferred to FlashPlate streptavidin 384-well microplate (PerkinElmer). After at least 1 h incubation at rt, the wells were washed three times with 0.1% Tween-20 in dH2O using the BioTek plate washer. The plates were then read in MicroBeta (PerkinElmer). The radioactive readouts were then normalized based on the values coming from the positive and negative controls to give percent enzyme activities. The data were then fit to a dose response equation using the program Helios to get the IC50 values of the test compounds.

MV4-11 cells = assay: MV4-11 6-Day Cell Growth CTG (CellTiter-Glo) Assay; assay type: cell-based; details: Homo sapiens, MV4-11, 144 h, MV4-11 cell growth CellTiter-Glo, 6 days
How it was run: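 MV4-11 AML cells (RPMI 1640, 10% FBS) seeded at 300 cells/well and exposed for 6 days at 37 °C to a 12-point, 1:3 compound series starting at 50 μM final. Viable cells read by CellTiter-Glo luminescence; percent inhibition versus DMSO-only wells fitted to dose-response curves for IC50.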

Structure (SMILES)	IC50 ([1]; read-out: LCMS)	IC50 (H3K4me3 in MV4-11 cells)	IC50 [2]	IC50 (MV4-11 cells)	IC50 ([1]; read-out: MLL1 LCMS)
Nc1ncnc2c1ncn2Cc1c(Br)cc(Cl)cc1N1CC[C@](N)(C(=O)NC2CC2)C1 [Example 1, (R)-3-amino-1-(2-((6-amino-9H-purin-9-yl)methyl)-3-bromo-5-chlorophenyl)-N-cyclopropylpyrrolidine-3-carboxamide]	< 50 nM	< 1900 nM	< 60 nM	2000 to 3000 nM	–
Nc1ncnc2c1ncn2Cc1c(Br)c(F)c2c(c1N1CC[C@](N)(C(=O)NC3CC3)C1)OCC2 [Example 20]	< 50 nM	< 1900 nM	< 60 nM	< 2000 nM	–
CS[C@H]1C[C@H](NC(=O)[C@@]2(N)CCN(c3ccc(F)c(C(F)(F)F)c3Cn3cnc4c(N)ncnc43)C2)C1 [Example 117]	< 50 nM	< 1900 nM	< 60 nM	< 2000 nM	–
Nc1ncnc2c1ncn2Cc1c(Br)c(Cl)c2c(c1N1CC[C@](N)(C(=O)NC3CC3)C1)OCC2 [Example 110]	< 50 nM	< 1900 nM	< 60 nM	< 2000 nM	–
CN(C)Cc1c(F)ccc(N2CC[C@](N)(C(=O)NC3CC3)C2)c1Cn1cnc2c(N)ncnc21 [Example 45, (R)-3-amino-1-(2-((6-amino-9H-purin-9-yl)methyl)-3-((dimethylamino)methyl)-4-fluorophenyl)-N-cyclopropylpyrrolidine-3-carboxamide]	50 to 100 nM	< 1900 nM	> 100 nM	< 2000 nM	–
N#CCN1CCN(C(=O)[C@@]2(N)CCN(c3ccc(F)c(C(F)(F)F)c3Cn3cnc4c(N)ncnc43)C2)CC1 [Example 136]	50 to 100 nM	< 1900 nM	< 60 nM	< 2000 nM	–
Nc1ncnc2c1ncn2Cc1c(N2CC[C@](N)(C(=O)NC3CC3)C2)ccc(Cl)c1Cl [Example 144]	–	< 1900 nM	< 60 nM	< 2000 nM	< 50 nM
Nc1ncnc2c1ncn2Cc1c(-c2ccc3c(c2)CCO3)cc(Cl)cc1N1CC[C@](N)(C(=O)NC2CC2)C1 [Example 3]	> 100 nM	> 3000 nM	> 100 nM	> 3000 nM	–
Nc1ncnc2c1ncn2Cc1c(N2CC[C@](N)(C(=O)NC3CC3)C2)ccc2ccoc12 [Example 112]	50 to 100 nM	< 1900 nM	< 60 nM	< 2000 nM	–
C=CC(=O)N1CCN(C(=O)[C@@]2(N)CCN(c3ccc(F)c(CC)c3Cn3cnc4c(N)ncnc43)C2)CC1 [Example 17]	< 50 nM	< 1900 nM	< 60 nM	< 2000 nM	–
CCc1c(Cl)ccc(N2CC[C@](N)(C(=O)NC3CCS(=O)(=O)CC3)C2)c1Cn1cnc2c(N)ncnc21 [Example 153]	–	< 1900 nM	60 to 100 nM	< 2000 nM	< 50 nM
Nc1ncnc2c1ncn2Cc1c(N2CC[C@](N)(C(=O)NC3CC3)C2)ccc(Br)c1C(F)(F)F [Example 146]	–	< 1900 nM	< 60 nM	< 2000 nM	< 50 nM
NC(=O)[C@@]1(N)CCN(c2cc(Cl)cc(-c3cccc(C4CCCCC4)c3)c2Cn2cnc3c(N)ncnc32)C1 [Example 16]	> 100 nM	< 1900 nM	> 100 nM	< 2000 nM	–
CCc1cc(Cl)cc(N2CC[C@](N)(C(=O)N3CCS(=O)(=O)CC3)C2)c1Cn1cnc2c(N)ncnc21 [Example 151]	–	< 1900 nM	< 60 nM	< 2000 nM	> 100 nM
